The supplement of paper PMC7017272
± gives the standard deviation of the averaged measurements.

Assays:
Conditions in all cases: treatment time: 3 days
UT-SCC-40 = assay: maximal % inhibition of viability relative to DMSO; higher = stronger effect
Procedure, shortened: (§1)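 Three growth formats were used for HPV-negative HNSCC cell lines in 384-well plates at 500 cells/well: bare plastic, wells coated with Matrigel or Myogel (500 µg/mL), and embedding in Matrigel or Myogel plus rat collagen I. Compounds were added at five 10-fold concentrations, and after 3 days CellTiter-Glo 2.0 luminescence was recorded and normalised to vehicle (0.1% DMSO) and cell-killing control wells. IC50, maximal inhibition and drug sensitivity score came from percent-inhibition dose–response fitting in the FIMM pipeline.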

UT-SCC-44 = assay: as above
Procedure, shortened: as §1

UT-SCC-73 = assay: as above
Procedure, shortened: as §1

UT-SCC-81 = assay: as above
Procedure, shortened: as §1

UT-SCC-106A = assay: as above
Procedure, shortened: as §1

UT-SCC-42B = assay: as above
Procedure, shortened: as §1

UT-SCC-24A [1] = assay: drug sensitivity score (DSS); higher = more sensitive
Experimental: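 HNSCC cell lines (500 cells/well, 384-well) were cultured on plastic, on top of (2D) or embedded (3D) in Matrigel or human leiomyoma matrix Myogel (500 ug/mL; Myogel 3D mixed with rat collagen I). Cells were treated for 3 days with 5 ten-fold concentrations of each drug, and viability was read by CellTiter-Glo. Suffixes _1/_2/_3 on drug names are replicates.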

UT-SCC-24A [2] = assay: maximal % inhibition of viability relative to DMSO; higher = stronger effect
Procedure, shortened: as §1

[3] = culture condition: on top of Matrigel
[4] = culture condition: on top of Myogel
[5] = culture condition: plastic 2D (no matrix)
[6] = culture condition: embedded in Matrigel
[7] = culture condition: embedded in Myogel + collagen I

CO[C@H]1C[C@@H]2CC[C@@H](C)[C@@](O)(O2)C(=O)C(=O)N2CCCC[C@H]2C(=O)O[C@H]([C@H](C)C[C@@H]2CC[C@@H](OC(=O)C(C)(CO)CO)[C@H](OC)C2)CC(=O)[C@H](C)/C=C(\C)[C@@H](O)[C@@H](OC)C(=O)[C@H](C)C[C@H](C)/C=C/C=C/C=C/1C [Temsirolimus]
maximal % inhibition of viability (UT-SCC-40; [3]): 24.6 ± 6.1% | maximal % inhibition of viability (UT-SCC-40; [4]): 21.9 ± 3.2% | maximal % inhibition of viability (UT-SCC-40; [5]): 22.1 ± 2.3% | maximal % inhibition of viability (UT-SCC-44; [6]): 29.4 ± 1.9% | maximal % inhibition of viability (UT-SCC-44; [7]): 38.9 ± 6.9% | maximal % inhibition of viability (UT-SCC-44; [3]): 38.4 ± 1.5% | maximal % inhibition of viability (UT-SCC-44; [4]): 38.6 ± 4% | maximal % inhibition of viability (UT-SCC-44; [5]): 35 ± 1.3% | maximal % inhibition of viability (UT-SCC-73; [6]): 32 ± 6.7% | maximal % inhibition of viability (UT-SCC-73; [7]): 38.7 ± 21% | maximal % inhibition of viability (UT-SCC-73; [3]): 29.7 ± 3.1% | maximal % inhibition of viability (UT-SCC-73; [4]): 34.5 ± 1.6% | maximal % inhibition of viability (UT-SCC-73; [5]): 24 ± 6.6% | maximal % inhibition of viability (UT-SCC-81; [6]): 63.3 ± 16% | maximal % inhibition of viability (UT-SCC-81; [7]): 56.5 ± 6% | maximal % inhibition of viability (UT-SCC-81; [3]): 44.6 ± 5.2% | maximal % inhibition of viability (UT-SCC-81; [4]): 54.3 ± 0.82% | maximal % inhibition of viability (UT-SCC-81; [5]): 49.7 ± 7.5% | maximal % inhibition of viability (UT-SCC-106A; [6]): 36.2 ± 2.6% | maximal % inhibition of viability (UT-SCC-106A; [7]): 33.9 ± 5.5% | maximal % inhibition of viability (UT-SCC-106A; [3]): 36.4 ± 0.4% | maximal % inhibition of viability (UT-SCC-106A; [4]): 25.1 ± 1.4% | maximal % inhibition of viability (UT-SCC-106A; [5]): 39.8 ± 5% | maximal % inhibition of viability (UT-SCC-42B; [6]): 25.8 ± 20% | maximal % inhibition of viability (UT-SCC-42B; [3]): 17.6 ± 6.1% | maximal % inhibition of viability (UT-SCC-42B; [4]): 9.87 ± 4.1% | maximal % inhibition of viability (UT-SCC-42B; [5]): 15.3 ± 3.6% | drug sensitivity score (UT-SCC-24A [1]; [6]): 10.2 ± 11 DSS | drug sensitivity score (UT-SCC-24A [1]; [7]): 9.67 ± 2.8 DSS | drug sensitivity score (UT-SCC-24A [1]; [3]): 4.9 ± 1.3 DSS | drug sensitivity score (UT-SCC-24A [1]; [4]): 5.03 ± 1.2 DSS | drug sensitivity score (UT-SCC-24A [1]; [5]): 6.07 ± 0.67 DSS | maximal % inhibition of viability (UT-SCC-24A [2]; [6]): 46.8 ± 44% | maximal % inhibition of viability (UT-SCC-24A [2]; [7]): 40.8 ± 6.7% | maximal % inhibition of viability (UT-SCC-24A [2]; [3]): 33.3 ± 6.1% | maximal % inhibition of viability (UT-SCC-24A [2]; [4]): 28.7 ± 1.9% | maximal % inhibition of viability (UT-SCC-24A [2]; [5]): 33.8 ± 2.7%
